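Values below derive from 48-hour exposures of cells grown in 96-well plates, with endpoints linearly interpolated between the two concentrations bracketing the appropriate inhibition level. The concentration for full growth arrest is given as TGI.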
What follows are compounds tested on HCT-116 colon (assay: NCI-60 cell line screen, 48 h).
`O=[N+]([O-])c1cccc(C2=NOC(C3CCCCC3)C2)c1` (stereo unspecified) showed a TGI greater than 100 µM. `Cc1ccc(C)c(N2C/C(=N\NC(=O)CC#N)C(c3nc4ccccc4s3)C(=O)C2=O)c1` (stereo unspecified) showed a TGI greater than 100 µM. `CCOCN1COCN(C)C1=O` was tested, and the TGI was greater than 100 µM. Work on `O=C1Sc2ccccc2C(=O)N2CSCC12` (stereo unspecified) yielded a TGI greater than 100 µM. `O=C(CN(c1ccccc1)c1ccccc1)N1c2ccccc2C2C=CC=CC21` (stereo unspecified) showed a TGI of 45.2 µM.

What follows are compounds tested on LOX IMVI melanoma (assay: NCI-60 cell line screen, 48 h).
Work on `CC(C)CCC[C@@H](C)C1CCC2[C@@H]3CC=C4C[C@@H](C(=O)NCCN(C)C)CC[C@]4(C)C3CC[C@@]21C` (stereo partly specified) yielded a TGI greater than 100 µM. Compound `CN(C(=O)c1ccc([N+](=O)[O-])cc1)c1ccccc1` has a TGI greater than 100 µM. In the case of `CCOCN1COCN(C)C1=O`, the TGI is reported as greater than 100 µM. With `O=C1Sc2ccccc2C(=O)N2CSCC12` (stereo unspecified) the TGI was greater than 100 µM. `O=C(CN(c1ccccc1)c1ccccc1)N1c2ccccc2C2C=CC=CC21` (stereo unspecified) gave a TGI of 44.5 µM.

What follows are compounds tested on OVCAR-3 ovarian (assay: NCI-60 cell line screen, 48 h).
`CC(C)CCC[C@@H](C)C1CCC2[C@@H]3CC=C4C[C@@H](C(=O)NCCN(C)C)CC[C@]4(C)C3CC[C@@]21C` (stereo partly specified) showed a TGI greater than 100 µM. `CN(C(=O)c1ccc([N+](=O)[O-])cc1)c1ccccc1` gave a TGI greater than 100 µM. In the case of `O=[N+]([O-])c1cccc(C2=NOC(C3CCCCC3)C2)c1` (stereo unspecified), the TGI is reported as greater than 100 µM. `Cc1ccc(C)c(N2C/C(=N\NC(=O)CC#N)C(c3nc4ccccc4s3)C(=O)C2=O)c1` (stereo unspecified) was tested, and the TGI was greater than 100 µM. In the case of `CCOCN1COCN(C)C1=O`, the TGI is reported as greater than 100 µM. With `O=C1Sc2ccccc2C(=O)N2CSCC12` (stereo unspecified) the TGI was greater than 100 µM. Compound `O=C(CN(c1ccccc1)c1ccccc1)N1c2ccccc2C2C=CC=CC21` (stereo unspecified) has a TGI of 44.6 µM.

The compounds below were run on HCC-2998 colon (assay: NCI-60 cell line screen, 48 h).
With `CC(C)CCC[C@@H](C)C1CCC2[C@@H]3CC=C4C[C@@H](C(=O)NCCN(C)C)CC[C@]4(C)C3CC[C@@]21C` (stereo partly specified) the TGI was 65.6 µM. `CN(C(=O)c1ccc([N+](=O)[O-])cc1)c1ccccc1` gave a TGI greater than 100 µM. `O=[N+]([O-])c1cccc(C2=NOC(C3CCCCC3)C2)c1` (stereo unspecified) showed a TGI greater than 100 µM. `Cc1ccc(C)c(N2C/C(=N\NC(=O)CC#N)C(c3nc4ccccc4s3)C(=O)C2=O)c1` (stereo unspecified) showed a TGI greater than 100 µM. `CCOCN1COCN(C)C1=O` gave a TGI greater than 100 µM. In the case of `O=C1Sc2ccccc2C(=O)N2CSCC12` (stereo unspecified), the TGI is reported as greater than 100 µM. Work on `O=C(CN(c1ccccc1)c1ccccc1)N1c2ccccc2C2C=CC=CC21` (stereo unspecified) yielded a TGI of 22.7 µM.

The compounds below were run on UACC-257 melanoma (assay: NCI-60 cell line screen, 48 h).
In the case of `CC(C)CCC[C@@H](C)C1CCC2[C@@H]3CC=C4C[C@@H](C(=O)NCCN(C)C)CC[C@]4(C)C3CC[C@@]21C` (stereo partly specified), the TGI is reported as 77.1 µM. `CN(C(=O)c1ccc([N+](=O)[O-])cc1)c1ccccc1` showed a TGI greater than 100 µM. `O=[N+]([O-])c1cccc(C2=NOC(C3CCCCC3)C2)c1` (stereo unspecified) gave a TGI greater than 100 µM. Work on `Cc1ccc(C)c(N2C/C(=N\NC(=O)CC#N)C(c3nc4ccccc4s3)C(=O)C2=O)c1` (stereo unspecified) yielded a TGI greater than 100 µM. `CCOCN1COCN(C)C1=O` showed a TGI greater than 100 µM. `O=C1Sc2ccccc2C(=O)N2CSCC12` (stereo unspecified) was tested, and the TGI was greater than 100 µM. `O=C(CN(c1ccccc1)c1ccccc1)N1c2ccccc2C2C=CC=CC21` (stereo unspecified) showed a TGI of 50.1 µM.

These compounds were tested on OVCAR-4 ovarian (assay: NCI-60 cell line screen, 48 h).
For `CC(C)CCC[C@@H](C)C1CCC2[C@@H]3CC=C4C[C@@H](C(=O)NCCN(C)C)CC[C@]4(C)C3CC[C@@]21C` (stereo partly specified), the TGI was greater than 100 µM. With `CN(C(=O)c1ccc([N+](=O)[O-])cc1)c1ccccc1` the TGI was greater than 100 µM. `O=[N+]([O-])c1cccc(C2=NOC(C3CCCCC3)C2)c1` (stereo unspecified) was tested, and the TGI was greater than 100 µM. `Cc1ccc(C)c(N2C/C(=N\NC(=O)CC#N)C(c3nc4ccccc4s3)C(=O)C2=O)c1` (stereo unspecified) was tested, and the TGI was greater than 100 µM. `CCOCN1COCN(C)C1=O` gave a TGI greater than 100 µM. With `O=C(CN(c1ccccc1)c1ccccc1)N1c2ccccc2C2C=CC=CC21` (stereo unspecified) the TGI was greater than 100 µM.

What follows are compounds tested on NCI-H522 lung (assay: NCI-60 cell line screen, 48 h).
In the case of `CC(C)CCC[C@@H](C)C1CCC2[C@@H]3CC=C4C[C@@H](C(=O)NCCN(C)C)CC[C@]4(C)C3CC[C@@]21C` (stereo partly specified), the TGI is reported as greater than 100 µM. `CN(C(=O)c1ccc([N+](=O)[O-])cc1)c1ccccc1` showed a TGI greater than 100 µM. For `O=[N+]([O-])c1cccc(C2=NOC(C3CCCCC3)C2)c1` (stereo unspecified), the TGI was greater than 100 µM. With `Cc1ccc(C)c(N2C/C(=N\NC(=O)CC#N)C(c3nc4ccccc4s3)C(=O)C2=O)c1` (stereo unspecified) the TGI was greater than 100 µM. Work on `O=C1Sc2ccccc2C(=O)N2CSCC12` (stereo unspecified) yielded a TGI greater than 100 µM. `O=C(CN(c1ccccc1)c1ccccc1)N1c2ccccc2C2C=CC=CC21` (stereo unspecified) was tested, and the TGI was 49 µM.

The compounds below were run on CCRF-CEM leukemia (assay: NCI-60 cell line screen, 48 h).
Compound `CC(C)CCC[C@@H](C)C1CCC2[C@@H]3CC=C4C[C@@H](C(=O)NCCN(C)C)CC[C@]4(C)C3CC[C@@]21C` (stereo partly specified) has a TGI of 73.1 µM. For `CN(C(=O)c1ccc([N+](=O)[O-])cc1)c1ccccc1`, the TGI was greater than 100 µM. With `O=[N+]([O-])c1cccc(C2=NOC(C3CCCCC3)C2)c1` (stereo unspecified) the TGI was greater than 100 µM.
